2 compounds from US20260108547A1, “LEVERAGING L-FUCOSE-MEDIATED SIGNALING TO INDUCE MONOCYTE-DERIVED DENDRITIC CELL POLARIZATION” (H. LEE MOFFITT CANCER CENTER AND RESEARCH INSTITUTE, INC., priority 2022, published 2026) can be followed below.

The structures appear in SMILES notation.

The subject of experiment [1] is SW1 tumors. The experiment is described as follows: Volumetric tumor growth, SW1 melanoma in C3H/HeN mice (incl. immunodepletion, FTY720, anti-PD1). The experiment is classed as in vivo, mouse. The settings on record: SW1 melanoma C3H mouse model treated with FTY720 (inhibition of lymph node egress). From the text:
All animals were housed at the Vincent A. Stabile Research building animal facility at H. Lee Moffitt Cancer Center & Research Institute, which is fully accredited by the Association for Assessment and Accreditation of Laboratory Animal Care International (AAALAC, #434), and are managed in accordance with the Guide for the Care and Use of Laboratory Animals (“The Guide”), the Animal Welfare Regulations Title 9 Code of Federal Regulations Subchapter A, “Animal Welfare”, Parts 1-3 (AWR), the Public Health Service Policy on Humane Care and Use of Laboratory Animals (PHS Policy), and by the USF Institutional Animal Care and Use Committee's Principles and Procedures of Animal Care and Use (IACUC Principles). The experiments and protocols detailed in this study received institutional approval by the Moffitt IACUC (RIS00001625). Four-to-six-week-old female C3H/HeN and male C57BL6 mice were purchased from Charles Rivers Laboratories for the indicated experiments. Four-to-six-week-old male NSG mice from the Lau laboratory breeding colony were used for the indicated experiments. Power calculations were used to determine mouse cohort sizes to detect significant changes in tumor sizes. In general, 10 mice per indicated cohort to accommodate for incidental loss of mice due to issues beyond our control (e.g., incidental tumor ulceration that required exclusion from the study). Mouse tumor volumes were measured using length, width and depth divided by 2. At each experimental endpoint, mice were humanely euthanized using CO2 inhalation in accordance to the American Veterinary Medical Association guidelines.
(§1) For all mouse models, 1×10^6 melanoma cells were injected subcutaneously in the right hind flanks of each mouse. […] This dosage is within ranges for dietary supplementation with L-fucose and other similar dietary sugars (e.g., D-mannose) in other rodent studies. When the tumors reached −2 cm^3, the animals were sacrificed, and the tumors either processed for flow cytometric profiling or for histological analysis as indicated.
Control vs. mFuk±L-fucose models (FIG. 1 & FIG. 8): SW1 or SM1 mouse melanoma cells were injected into syngeneic C3H/HeN (or NSG) female or C57BL/6 male mice, respectively, as follows: parental SW1 cells for FIG. 1A; parental SM1 cells for FIG. 1E; SW1 cells stably expressing either empty vector (EV) or mouse fucose kinase (mFuk) for FIG. 1L; and parental SW1 cells for FIG. 1M.
(§2) Control vs. L-fucose±FTY720 models (FIG. 2): SW1 or SM1 mouse melanoma cells were injected into syngeneic C3H/HeN (or NSG) female or C57BL/6 male mice, respectively. Cells were injected as follows: parental SW1 cells for FIG. 1A; parental SM1 cells for FIG. 1E; SW1 cells stably expressing either empty vector (EV) or mouse fucose kinase (mFuk) for FIG. 1L; and parental SW1 cells for FIG. 1M. FTY720 was administered at 20 μg every 2 days starting on Day 12, just prior to the initiation of LF, until endpoint.
Immunodepletion mouse models (FIG. 1 & FIG. 8): Three days prior to tumor engraftment, PBS (control) or ˜300 μg α-CD4 (20 mg/kg, for immunodepletion, GK1.5, Bioxcell (West Lebanon, NH)) or 0-CD8 (20 mg/kg, for immunodepletion, 2.43, Bioxcell (West Lebanon, NH)) was administered by intraperitoneal injection into the indicated cohorts of mice. Injections of immunodepletion antibody or PBS were continued every 3-4 days until endpoint. Syngeneic recipient C3H/HeN female or C57BL/6 male mice were injected with SW1 or SM1 cells, respectively. […]

Experiment [2] relates to SW1 tumors. The experiment is described as follows: Flow cytometric profiling of tumors and lymph nodes, SW1 tumors in C3H/HeN mice fed ± L-fucose and treated ± FTY720 (Table 1). In kind it is in vivo, mouse. As for the experimental part:
Tumors of SW1 or SM1 melanoma cells from […] or C57BL/6 mice, respectively) were digested using 1× tumor digest buffer (0.5 mg/mL Collagenase I, 0.5 mg/mL Collagenase IV, 0.25 mg/mL Hyalyronidase V, 0.1 mg/mL DNAse I in HBSS (Millipore Sigma (St. Louis, MO)). Tumors were homogenized using the Miltenyi MACs dissociator. Red blood cells were lysed using ACK lysis buffer (Life Technologies, (Grand Island, NY)). Tumor homogenate cells were counted using a standard hemocytometer.
Total TILs were gated first to single cells (based on forward scatter height vs width, followed by side scatter height vs. width). Live cells were gated from the Zombie negative population from the population above. TILs were gated based on splenocyte size from a control spleen. Individual immune subpopulations were sub-gated from the total TIL population using the following staining criteria: CD3^+ for CD3^+ T cells; CD3^+/CD4^+/CD8^− for CD4^+T cells; CD3^+/CD4^−/CD8^+ for CD8^+ T cells, CD11c^+/CD11b^+ for DCs; either NK1.1 (for C57/BL6 mice) or DX5 (for C3H/HeJ) for NK cells; CD11b^+/GR1^+ for MDSC-like cells; and F4/80^+ for macrophages. Single-cell suspensions from tumor and spleen tissue were stained with Live/Dead Zombie NIR (Biolegend, (San Diego, CA)) at 1:1,000 in PBS for 20 min. Cell suspensions were spun down and stained with the following with antibodies at 0.5 μg/ml per antibody: APC anti-mouse CD3, Pacific Blue anti-mouse CD4, BV785 anti-mouse CD8, PerCP anti-mouse CD25, FITC anti-mouse F4/80, PeCy7 anti-mouse CD11c, PE anti-mouse NK1.1 or PE anti-mouse DX5, and PerCP-Cy5.5 anti-mouse CD11b. After staining, the cells were washed and fixed (2% formaldehyde), followed by another wash and flow cytometric analysis. The compensation controls were prepared using 0.5 μg/mL of each antibody with UltraComp eBeads, (ThermoFisher Scientific (Waltham, MA)). All samples were subject to flow cytometric profiling using a LSR Flow Cytometer (BD Biosciences (San Jose, CA)) and analysis as indicated using FlowJo software (BD Biosciences (San Jose, CA)).
as §1, §2

In experiment [3] the test system is HLA-DRB1. Kind of experiment: qRT-PCR and immunoblot of HLA-DRB1 mRNA and protein levels in melanoma cells. The experiment is classed as cell-based, human. The settings on record: 250 μM. The protocol:
Cells were lysed on ice in RIPA lysis buffer (25 mM Tris-HCl pH 7.6, 150 mM NaCl, 5 mM EDTA, 1% NP-40 or 1% Triton X-100, 1% sodium deoxycholate, 0.1% SDS in diH2O+protease and phosphatase inhibitors (ThermoFisher Scientific (Waltham, MA)), briefly sonicated, pelleted, and the resulting lysates were normalized by protein concentration using DC assay (BioRad Laboratories, (Hercules, CA)). The indicated samples were subjected to (12%) SDS-PAGE and immunoblot analysis using the indicated antibodies. Immunoblot imaging and analysis was performed using either an Odyssey FC scanner and ImageStudio (LiCor Biosciences, Lincoln, NE) or film.
RNA from cells subjected to the indicated treatments was extracted using Gene Elute Mammalian Total RNA Extraction System (Millipore Sigma (St. Louis, MO)). RNA was reversed transcribed to cDNA using High-Capacity cDNA Reverse Transcription Kit (ThermoFisher Scientific (Waltham, MA)). qRT-PCR analysis was performed using FastStart Universal SYBR Green Master Mix (Rox) (Roche Diagnostics, (Indianapolis, IN)) using a BioRad CFX96 Real-time system (BioRad Laboratories, (Hercules, CA)). The qRT-PCR cycles used were as follows: 95° C. for 10 min, 35 cycles of 95° C. for 15 seconds, 55° C. for 60 seconds,
and 72° C. for 30 seconds. Expression of the indicated genes was normalized to histone H3A expression. […]

The subject of experiment [4] is HLA-DRB1. Kind of experiment: Flow cytometric assessment of cell surface fucosylation and HLA-DRB1 in melanoma cells. The experiment is classed as cell-based, human. The settings on record: 250 μM, 72 h; flow cytometry. The protocol:
Indicated cells were treated for 72 h with DMSO, 250 μM fucosyltransferase inhibitor (FUTi) (Millipore Sigma (St. Louis, MO)), or 250 μM of L-fucose (Biosynth (Oak Terrace, IL)). After 72 h, cells were stained with 0.1 μM PKH26 (Millipore Sigma (St. Louis, MO)) prior to fixation in 4% formaldehyde solution. The cells were stained with anti-HLA-DRB1 and fluorescein AAL, or anti-human or anti-mouse PD-L1 overnight. The following day the cells were washed 3 times prior to adding AlexaFluor 594 donkey anti-rabbit. Cells were washed 3 times and then subject to flow cytometric analyses using a FACSCalibur (BD Biosciences (San Jose, CA)). Samples were analyzed using FlowJo analysis software (BD Biosciences (San Jose, CA)). Median values of DRB1 and AAL were normalized to PKH26 values and statistical analysis was performed using GraphPad Prism.
(In general: In flow cytometry, cells or beads pass a laser one at a time.)

Experiment [5] deals with HLA-DRB1. The experiment is described as follows: Immunofluorescent subcellular localization of HLA-DRB1 in WM793 cells. In kind it is cell-based, human. The settings on record: compared with vehicle (DMSO). As for the experimental part:
General fluorescent immunocytochemical staining protocol: Melanoma cells were grown on German glass coverslips (Electron Microscopy Services (Hatfield, PA)) and fixed in fixation buffer (4% formaldehyde, 2% sucrose in phosphate buffered saline (PBS) for 20 min at room temperature (RT). The coverslip-grown cells were subject to two 5-min standing washes in PBS prior to permeabilization in permeabilization buffer (0.4% Triton-X-100 and 0.4% IgG-free bovine serum albumin (BSA, Jackson ImmunoResearch Laboratories (Westgrove, PA) in PBS) for 20 min at RT. The coverslip-grown cells were next subject to 2 PBS washes and incubated with the indicated primary antibodies.

In another experiment the test system is fucosylated HLA-DRB1. The experiment is described as follows: Lectin-mediated proximity ligation assay (L-PLA) of fucosylated HLA-DRB1 in WM793 cells. The note with it: melanoma cells. The experiment is classed as cell-based, human. As for the experimental part:
Coverslip-grown cells subjected to L-PLA were processed upfront as described in the fluorescent immunocytochemistry protocol detailed above, whereas FFPE tumor tissue sections were processed according to the fluorescent immunohistochemistry protocol detailed above. Both approaches used mouse-anti-HLA-DRB1 (applied at 0.2 μg/mL, ab215835, Abcam, Cambridge, UK), biotinylated AAL lectin (applied at 0.2 μg/mL, Vector Laboratories (Burlingame, CA)), on coverslips overnight in 4° C. The coverslip-grown cells were again washed twice with PBS followed and then incubated with phalloidin Alexafluor 488 (applied at 0.05 μg/mL, ThermoFisher Scientific (Waltham, MA) with goat anti-biotin (applied at 0.1 μg/mL, Vector Laboratories (Burlingame, CA)) for 2h in 4° C. Subsequent steps of the protocol were adapted from the DUOlink In Situ Green PLA kit's manufacturer's protocol (Millipore Sigma (St. Louis, MO)). PLA anti-goat MINUS and PLA anti-mouse PLUS probes were applied at 1:5 for 1 h at 37° C. The coverslips were washed twice with Wash Buffer A prior to ligation with 1:5 ligation buffer and 1:40 ligase in ddH2O for 30 min at 37° C. […] Microscopy images were acquired using a Keyence BZ-X710, and images were process and analyzed using FIJI (NIH).

Consider `CCCCCCCCc1ccc(CCC(N)(CO)CO)cc1` [FTY720, reference compound], for which the L-fuc-triggered tumor suppression result in the experiment with SW1 tumors [1] was “completely abrogated”. Further, in the experiment on SW1 tumors [2] (Day 28, tumors), the “average # of CD4 stem central memory cells” value was determined as 0.87 per 10^6 cells and the “average # of CD8 stem central memory cells” value was found to be 0.00 per 10^6 cells. In addition, in the experiment on SW1 tumors [2] (Day 42, tumors), the “average # of CD8 effector memory cells” value amounted to 220.02 per 10^6 cells and the “average # of CD8 stem central memory cells” value is given as 0.00 per 10^6 cells. Further, the “intratumoral CD4+T central and effector memory subpopulations” value in the experiment with SW1 tumors [2] (SW1 model ± FTY720) is recorded as “abrogated”.
Regarding `CC(=O)OC1O[C@@H](C)[C@@H](OC(C)=O)[C@@H](OC(C)=O)[C@@H]1F` (some centres unmarked) [FUTi, 2F-peracteyl-fucose, reference compound], the “HLA-DRB1 mRNA and protein levels” value in the experiment with HLA-DRB1 [3] is “remained unchanged”. Moreover, in the experiment with HLA-DRB1 [4], the “cell surface HLA-DRB1” value was “decreased” and the cell surface fucosylation entry is given as “decreased”. Besides, the “subcellular localization of HLA-DRB1” value with HLA-DRB1 [5] is recorded as “dimmer, more central, endoplasmic reticulum-co-localization of HLA-DRB1”. Also, in the experiment on fucosylated HLA-DRB1, the “cytoplasmic/membranous localization of endogenous fucosylated HLA-DRB1 (L-PLA)” value was “lost”.
